Test results as given in US11737999B2, “Amino acid compositions and methods for the treatment of post-acute sequelae of COVID-19” (AXCELLA HEALTH INC., priority 2021, dated 2023).

Columns and labels:
MCP-1 = MCP-1 chemokine secretion in primary human hepatic stellate cells stimulated with TNFα; format: cell-based; conditions: hepatic stellate cells, two donors
Col1a1 = Col1a1 gene expression (RT-qPCR) in primary human hepatic stellate cells stimulated with TGFβ1; format: cell-based
IL-6 [1] = experiment: LPS-induced IL-6 secretion in primary human monocyte-derived macrophages; conditions: for IL-6 Measurements, Mean: 0.15 ng/mL LPS, baseline subtracted values
TNF-α = experiment: LPS-induced TNF-α secretion in primary human monocyte-derived macrophages; conditions: for TNF-α Measurements Mean (baseline subtracted): 0.15 ng/mL LPS
Procollagen Iα1 = Procollagen Iα1 secretion (ELISA) in primary human hepatic stellate cells stimulated with TGFβ1; format: cell-based; conditions: for Procollagen lα1 Secretion (Fold Change of 1X), Mean: first donor, TGFβ1 3 ng/mL 24 h
IL-6 [2] = experiment: IL-6 cytokine secretion in primary human hepatic stellate cells stimulated with TNFα; format: cell-based; conditions: hepatic stellate cells, two donors
MCP1/CCL2 = MCP1/CCL2 secretion by ELISA in primary human hepatocytes with FFA + TNFα; format: cell-based
[3] = hepatic stellate cells, three donors

## CC(=O)N[C@@H](CS)C(=O)O [N-Acetyl Cysteine, N-acetylcysteine]
MCP-1
  MCP-1 secretion (summary in words): significantly reduced MCP-1 secretion in both donors
Col1a1; first donor, 1000 μM, single amino acid
  Col1a1 Fold Expression Relative to Control, Mean: 1.00 fold
Col1a1; first donor, 10000 μM, single amino acid
  Col1a1 Fold Expression Relative to Control, Mean: 0.76 fold
Col1a1; first donor, 5X, normalized to Gapdh, TGFβ1 3 ng/mL 24 h
  Col1a1 Fold Expression Relative to Control, Mean: 1.00 fold
Col1a1; first donor, 10X, normalized to Gapdh, TGFβ1 3 ng/mL 24 h
  Col1a1 Fold Expression Relative to Control, Mean: 1.07 fold
Col1a1; first donor, 20X, normalized to Gapdh, TGFβ1 3 ng/mL 24 h
  Col1a1 Fold Expression Relative to Control, Mean: 1.02 fold
Col1a1; first donor, 40X, normalized to Gapdh, TGFβ1 3 ng/mL 24 h
  Col1a1 Fold Expression Relative to Control, Mean: 0.76 fold
Col1a1; [3]
  Col1a1 gene expression (summary in words): significantly reduced Col1a1 gene expression in all three donors
Col1a1; second donor (Table 27), 1000 μM, single amino acid
  Col1a1 Fold Expression Relative to Control, Mean: 0.69 fold
Col1a1; second donor (Table 27), 2500 μM, single amino acid
  Col1a1 Fold Expression Relative to Control, Mean: 0.69 fold
Col1a1; second donor (Table 27), 5000 μM, single amino acid
  Col1a1 Fold Expression Relative to Control, Mean: 0.69 fold
Col1a1; second donor (Table 27), 10000 μM, single amino acid
  Col1a1 Fold Expression Relative to Control, Mean: 0.57 fold
Col1a1; second donor (Table 29), 1000 μM, single amino acid
  Col1a1 Fold Expression Relative to Control, Mean: 0.91 fold
Col1a1; second donor (Table 29), 2500 μM, single amino acid
  Col1a1 Fold Expression Relative to Control, Mean: 0.82 fold
Col1a1; second donor (Table 29), 5000 μM, single amino acid
  Col1a1 Fold Expression Relative to Control, Mean: 0.73 fold
Col1a1; second donor (Table 29), 10000 μM, single amino acid
  Col1a1 Fold Expression Relative to Control, Mean: 0.62 fold
Col1a1; second donor, 5X, normalized to Gapdh, TGFβ1 3 ng/mL 24 h
  Col1a1 Fold Expression Relative to Control, Mean: 0.69 fold
Col1a1; second donor, 10X, normalized to Gapdh, TGFβ1 3 ng/mL 24 h
  Col1a1 Fold Expression Relative to Control, Mean: 0.69 fold
Col1a1; second donor, 20X, normalized to Gapdh, TGFβ1 3 ng/mL 24 h
  Col1a1 Fold Expression Relative to Control, Mean: 0.69 fold
Col1a1; second donor, 40X, normalized to Gapdh, TGFβ1 3 ng/mL 24 h
  Col1a1 Fold Expression Relative to Control, Mean: 0.57 fold
Col1a1; third donor, 5X, normalized to Gapdh, TGFβ1 3 ng/mL 24 h
  Col1a1 Fold Expression Relative to Control, Mean: 0.91 fold
Col1a1; third donor, 10X, normalized to Gapdh, TGFβ1 3 ng/mL 24 h
  Col1a1 Fold Expression Relative to Control, Mean: 0.82 fold
Col1a1; third donor, 20X, normalized to Gapdh, TGFβ1 3 ng/mL 24 h
  Col1a1 Fold Expression Relative to Control, Mean: 0.73 fold
Col1a1; third donor, 40X, normalized to Gapdh, TGFβ1 3 ng/mL 24 h
  Col1a1 Fold Expression Relative to Control, Mean: 0.62 fold
IL-6 [1]; Donor 1
  LPS-induced IL-6 secretion (summary in words): significantly reduced LPS-induced IL-6 secretion
IL-6 [1]; Donor 2
  LPS-induced IL-6 secretion (summary in words): significantly reduced LPS-induced IL-6 secretion
IL-6 [1]; Donor 2, Conc. 5 X
  IL-6 Measurements, Mean: −0.7946
IL-6 [1]; Donor 2, Conc. 10 X
  IL-6 Measurements, Mean: −9.751
IL-6 [1]; Donor 2, Conc. 40 X
  IL-6 Measurements, Mean: −33.7585
IL-6 [1]; Donor 3
  LPS-induced IL-6 secretion (summary in words): significantly reduced LPS-induced IL-6 secretion
TNF-α; Donor 1
  LPS-induced TNF-α secretion (summary in words): significantly reduced LPS-induced TNF-α secretion
TNF-α; Donor 1, Conc. 0 X (baseline)
  TNF-α Measurements Mean (baseline subtracted): 0
TNF-α; Donor 1, Conc. 5 X
  TNF-α Measurements Mean (baseline subtracted): −326.24
TNF-α; Donor 1, Conc. 10 X
  TNF-α Measurements Mean (baseline subtracted): −446.88
TNF-α; Donor 1, Conc. 20 X
  TNF-α Measurements Mean (baseline subtracted): −561.33
TNF-α; Donor 1, Conc. 40 X
  TNF-α Measurements Mean (baseline subtracted): −644.49
TNF-α; Donor 2
  LPS-induced TNF-α secretion (summary in words): significantly reduced LPS-induced TNF-α secretion
TNF-α; Donor 2, Conc. 0 X (baseline)
  TNF-α Measurements Mean (baseline subtracted): 9.47E−15
TNF-α; Donor 2, Conc. 5 X
  TNF-α Measurements Mean (baseline subtracted): −54.1596
TNF-α; Donor 2, Conc. 10 X
  TNF-α Measurements Mean (baseline subtracted): −70.8382
TNF-α; Donor 2, Conc. 20 X
  TNF-α Measurements Mean (baseline subtracted): −88.6528
TNF-α; Donor 2, Conc. 40 X
  TNF-α Measurements Mean (baseline subtracted): −103.984
TNF-α; Donor 3
  LPS-induced TNF-α secretion (summary in words): significantly reduced LPS-induced TNF-α secretion
TNF-α; Donor 3, Conc. 0 X (baseline)
  TNF-α Measurements Mean (baseline subtracted): 4.74E−15
TNF-α; Donor 3, Conc. 5 X
  TNF-α Measurements Mean (baseline subtracted): −33.6246
TNF-α; Donor 3, Conc. 10 X
  TNF-α Measurements Mean (baseline subtracted): −41.7266
TNF-α; Donor 3, Conc. 20 X
  TNF-α Measurements Mean (baseline subtracted): −48.4373
TNF-α; Donor 3, Conc. 40 X
  TNF-α Measurements Mean (baseline subtracted): −55.3093
Procollagen Iα1; 5X
  Procollagen lα1 Secretion (Fold Change of 1X), Mean: 0.9175 fold
Procollagen Iα1; 10X
  Procollagen lα1 Secretion (Fold Change of 1X), Mean: 0.7939 fold
Procollagen Iα1; 20X
  Procollagen lα1 Secretion (Fold Change of 1X), Mean: 0.6593 fold
Procollagen Iα1; 40X
  Procollagen lα1 Secretion (Fold Change of 1X), Mean: 0.5076 fold
Procollagen Iα1; [3]
  procollagen Iα1 secretion (summary in words): significantly decrease procollagen Iα1 secretion in two of the three donors
Procollagen Iα1; second donor, Conc. 5 X
  Procollagen Iα1 Secretion, Mean: 0.8387 Fold Change of 1X
Procollagen Iα1; second donor, Conc. 10 X
  Procollagen Iα1 Secretion, Mean: 0.8877 Fold Change of 1X
Procollagen Iα1; second donor, Conc. 20 X
  Procollagen Iα1 Secretion, Mean: 0.7378 Fold Change of 1X
Procollagen Iα1; second donor, Conc. 40 X
  Procollagen Iα1 Secretion, Mean: 0.8383 Fold Change of 1X
Procollagen Iα1; third donor, Conc. 5 X
  Procollagen Iα1 Secretion, Mean: 1.0897 Fold Change of 1×
Procollagen Iα1; third donor, Conc. 10 X
  Procollagen Iα1 Secretion, Mean: 0.9391 Fold Change of 1×
Procollagen Iα1; third donor, Conc. 20 X
  Procollagen Iα1 Secretion, Mean: 0.8521 Fold Change of 1×
Procollagen Iα1; third donor, Conc. 40 X
  Procollagen Iα1 Secretion, Mean: 0.6962 Fold Change of 1×
IL-6 [2]
  IL-6 secretion (summary in words): reduced IL-6 secretion in both donors but was only statistically significant in one of two donors
MCP1/CCL2; Donor 1, Conc. 1000 μM
  MCP1 expression relative to Control, Mean: −0.7629
MCP1/CCL2; Donor 1, Conc. 2500 μM
  MCP1 expression relative to Control, Mean: −2.498
MCP1/CCL2; Donor 1, Conc. 5000 μM
  MCP1 expression relative to Control, Mean: −10.8919
MCP1/CCL2; Donor 1, Conc. 10000 μM
  MCP1 expression relative to Control, Mean: −17.6065
MCP1/CCL2; Donor 2, Conc. 1000 μM
  MCP1 expression relative to Control, Mean: 1.602
MCP1/CCL2; Donor 2, Conc. 2500 μM
  MCP1 expression relative to Control, Mean: −4.0591
MCP1/CCL2; Donor 2, Conc. 5000 μM
  MCP1 expression relative to Control, Mean: −10.5725
MCP1/CCL2; Donor 2, Conc. 10000 μM
  MCP1 expression relative to Control, Mean: −28.4419
MCP1/CCL2; primary human hepatocytes, two healthy donors
  MCP1/CCL2 secretion (summary in words): significantly decrease MCP1/CCL2 secretion
